# Source: patent US20240294543A1, “CYCLOHEPTA-THIENO-DIAZEPINE DERIVATIVES AS GABA A GAMMA1 PAM” (Hoffmann-La Roche Inc., priority 2021, published 2024)
# Target: human GABAA α5β2γ1 receptor (Homo sapiens (Human), UniProt P31644+Q8N1C3)
# Assay: Radioligand binding assay, competition for [3H]RO7239181, γ1-containing GABAA subtypes
# Method: The affinity of compounds at GABAA γ1 subunit-containing receptors was measured by competition for [^3H]RO7239181 (67.3 Ci/mmol; Roche) binding to membranes from HEK293F cells (ThermoFisher R79007) expressing human (transiently transfected) receptors of composition α5β2γ1, α2β2γ1, α1β2γ1. For better protein expression of the α2 subunit-containing receptors, the 28 amino acid long signal peptide (Met1 to Ala28) of the human GABAA α2 subunit was substituted by the 31 amino acid long signal peptide (Met1 to Ser31) of human GABAA α5 subunit.
# Harvested pellets from HEK293F cells expressing the different GABAA receptor subtypes were resuspended in Mannitol Buffer pH 7.2-7.4 (Mannitol 0.29 M, Triethylamine 10 mM, Acetic acid 10 mM, EDTA 1 mM plus protease inhibitors (20 tablets Complete, Roche Diagnostics Cat. No. 05 056 489 001 per liter)), washed two times and then resuspended at 1:10 to 1:15 dilution in the same buffer. Cell disruption was performed by stirring the suspension in a Parr vessel #4637 at 435 psi for 15 minutes, and then the suspensions were centrifuged at 1000×g for 15 minutes at 4° C. (Beckman Avanti J-HC; rotor JS-4.2). The supernatant (S1) was transferred in a 21 Schott flask and the pellet (P1) was resuspended with Mannitol Buffer up to 175 ml. The resuspended pellet was transferred into a 250 ml Corning centrifugal beaker and centrifuged at 1500×g for 10 minutes at 4° C. (Beckman Avanti J-HC; rotor JS-4.2). The supernatant (S1) was then transferred in the 21 Schott flask and the pellet was discarded. The supernatants (S1) were centrifuged in 500 ml Beckman polypropylene centrifugal beaker at 15'000×g for 30 minutes at 4° C. (Beckman Avanti J-20 XP; rotor JLA-10.500). The pellet (P2) was resuspended with Mannitol Buffer 1:1 and frozen at −80° C. The supernatant (S2) was centrifuged in 100 ml Beckman polypropylene centrifugal tubes at 48000×g for 50 minutes at 4° C. (Beckman Avanti J-20 XP; rotor JA-18). The supernatant (S3) was discarded and the pellet (P3) was resuspended with 1:1 Mannitol Buffer. The P2 and P3 protein concentration was determined with the BIORAD Standard assay method with bovine serum albumin as standard and measured on the NANO-Drop 1000. The membrane suspension was aliquots (500 μl per tube) and stored at −80° C. until required.
# Membrane homogenates were resuspended and polytronised (Polytron PT1200E Kinematica AG) in Potassium Phosphate 10 mM, KCl 100 mM binding buffer at pH 7.4 to a final assay concentration determined with a previous experiment.
# Radioligand binding assays were carried out in a volume of 200 μL (96-well plates) which contained 100 μL of cell membranes, [^3H]RO7239181 at a concentration of 1.5 nM (α5β2γ1) or 20-30 nM (α1β2γ1, α2β2γ1) and the test compound in the range of [0.3-10000]×10^−9 M. Nonspecific binding was defined by 10×10^−6 (α5β2γ1) and 30×10^−6 M RO7239181 and typically represented less than 5% (α5β2γ1) and less than 20% (α1β2γ1, α2β2γ1) of the total binding. Assays were incubated to equilibrium for 1 hour at 4° C. and then, membranes were filtered onto unifilter (96-well white microplate with bonded GF/C filters preincubated 20-50 minutes in 0.3% Polyethylenimine) with a Filtermate 196 harvester (Packard BioScience) and washed 4 times with cold Potassium Phosphate 10 mM pH 7.4, KCl 100 mM binding buffer. After anhydrousing, filter-retained radioactivity was detected by liquid scintillation counting. Ki values were calculated using Excel-Fit (Microsoft) and are the means of two determinations.
row,Structure (SMILES),Ki
1,"Cc1nnc2n1-c1sc3c(c1C(c1c(F)cccc1F)=N[C@H]2C)CCCCC3O (mixture of isomers) [Example 9, (7S,16RS)-9-(2,6-difluorophenyl)-3,7-dimethyl-18-thia-2,4,5,8-tetrazatetracyclo[8.8.0.02,6.011,17]octadeca-1(10),3,5,8,11(17)-pentaen-16-ol]",2.79 nM
2,"Cc1nnc2n1-c1sc3c(c1C(c1c(F)cccc1F)=N[C@H]2C)CCCC(O)C3 (mixture of isomers) [Example 13, (7S,15RS)-9-(2,6-difluorophenyl)-3,7-dimethyl-18-thia-2,4,5,8-tetrazatetracyclo[8.8.0.02,6.011,17]octadeca-1(10),3,5,8,11(17)-pentaen-15-ol]",5.67 nM
3,"Cc1nnc2n1-c1sc3c(c1C(c1c(F)cccc1F)=N[C@H]2C)CCCC[C@H]3F (single isomer, unassigned) [Example 11]",2.7 nM
4,"C[C@@H]1N=C(c2c(F)cccc2F)c2c(sc3c2CCCCC3)-n2c(C3CC3)nnc21 [Example 3, (7S)-3-cyclopropyl-9-(2,6-difluorophenyl)-7-methyl-18-thia-2,4,5,8-tetrazatetracyclo[8.8.0.02,6.011,17]octadeca-1(10),3,5,8,11(17)-pentaene]",3.69 nM
5,"C[C@@H]1N=C(c2c(F)cccc2F)c2c(sc3c2CCCCC3)-n2c(-c3cccnn3)nnc21 [Example 4, (7S)-9-(2,6-difluorophenyl)-7-methyl-3-pyridazin-3-yl-18-thia-2,4,5,8-tetrazatetracyclo[8.8.0.02,6.011,17]octadeca-1(10),3,5,8,11(17)-pentaene]",8.65 nM
6,"C[C@@H]1N=C(c2c(F)cccc2F)c2c(sc3c2CCCCC3)-n2ccc(=O)nc21 [Example 7, (8S)-10-(2,6-difluorophenyl)-8-methyl-19-thia-2,6,9-triazatetracyclo[9.8.0.02,7.012,18]nonadeca-1(11),3,6,9,12(18)-pentaen-5-one]",2.24 nM
7,"Cc1nc2n(n1)-c1sc3c(c1C(c1c(F)cccc1F)=N[C@H]2C)CCCCC3 [Example 20, (7S)-9-(2,6-difluorophenyl)-4,7-dimethyl-18-thia-2,3,5,8-tetrazatetracyclo[8.8.0.02,6.011,17]octadeca-1(10),3,5,8,11(17)-pentaene]",0.98 nM
8,"C[C@@H]1N=C(c2c(F)cccc2F)c2c(sc3c2COCCO3)-n2nc(C(=O)N3CCC3)nc21 [Example 22, azetidin-1-yl-[(7S)-9-(2,6-difluorophenyl)-7-methyl-13,16-dioxa-18-thia-2,3,5,8-tetrazatetracyclo[8.8.0.02,6.011,17]octadeca-1(10),3,5,8,11(17)-pentaen-4-yl]methanone]",1.12 nM
9,"[2H]C1([2H])OCc2c(sc3c2C(c2c(F)cccc2F)=N[C@@H](C)c2nc(C(=O)N4CCC4)nn2-3)OC1([2H])[2H] [Example 23, azetidin-1-yl-[(7S)-14,14,15,15-tetradeuterio-9-(2,6-difluorophenyl)-7-methyl-13,16-dioxa-18-thia-2,3,5,8-tetrazatetracyclo[8.8.0.02,6.011,17]octadeca-1(10),3,5,8,11(17)-pentaen-4-yl]methanone]",2.49 nM
10,"C[C@@H]1N=C(c2c(F)cccc2F)c2c(sc3c2COCCO3)-n2nc(C(=O)NCCF)nc21 [Example 25, (7S)-9-(2,6-difluorophenyl)-N-(2-fluoroethyl)-7-methyl-13,16-dioxa-18-thia-2,3,5,8-tetrazatetracyclo[8.8.0.02,6.011,17]octadeca-1(10),3,5,8,11(17)-pentaene-4-carboxamide]",2.1 nM
11,"Cc1cn2c(nc1=O)[C@H](C)N=C(c1c(F)cccc1F)c1c-2sc2c1CCCCC2 [Example 26, (8S)-10-(2,6-difluorophenyl)-4,8-dimethyl-19-thia-2,6,9-triazatetracyclo[9.8.0.02,7.012,18]nonadeca-1(11),3,6,9,12(18)-pentaen-5-one]",3.78 nM
12,"Cc1nnc2n1-c1sc3c(c1C(c1c(F)cccc1F)=N[C@H]2C)CC[C@@H](O)CC3 [Example 27, (7S,14R)-9-(2,6-difluorophenyl)-3,7-dimethyl-18-thia-2,4,5,8-tetrazatetracyclo[8.8.0.02,6.011,17]octadeca-1(10),3,5,8,11(17)-pentaen-14-ol]",10.9 nM
13,"Cc1nc2n(n1)-c1sc3c(c1C(c1c(F)cccc1F)=N[C@H]2C)COCCO3 [Example 28, (7S)-9-(2,6-difluorophenyl)-4,7-dimethyl-13,16-dioxa-18-thia-2,3,5,8-tetrazatetracyclo[8.8.0.02,6.011,17]octadeca-1(10),3,5,8,11(17)-pentaene]",0.89 nM
14,"C[C@@H]1N=C(c2c(F)cccc2F)c2c(sc3c2COCCO3)-n2nc(C(=O)N3CC(OC(C)(C)C)C3)nc21 [Example 29, (3-tert-butoxyazetidin-1-yl)-[(7S)-9-(2,6-difluorophenyl)-7-methyl-13,16-dioxa-18-thia-2,3,5,8-tetrazatetracyclo[8.8.0.02,6.011,17]octadeca-1(10),3,5,8,11(17)-pentaen-4-yl]methanone]",1.82 nM
15,C[C@@H]1N=C(c2c(F)cccc2F)c2c(sc3c2COCCO3)-n2nc(C(=O)NC3CC3)nc21 [Example 36],3.66 nM
16,"CCNC(=O)c1nc2n(n1)-c1sc3c(c1C(c1c(F)cccc1F)=N[C@H]2C)COCCO3 [Example 37, (7S)-9-(2,6-difluorophenyl)-N-ethyl-7-methyl-13,16-dioxa-18-thia-2,3,5,8-tetrazatetracyclo[8.8.0.02,6.011,17]octadeca-1(10),3,5,8,11(17)-pentaene-4-carboxamide]",3.21 nM
17,"Cc1nc2n(n1)-c1sc3c(c1C(c1c(F)cccc1F)=N[C@H]2C)COC[C@H](C)O3 [Example 39, (7S,15S)-9-(2,6-difluorophenyl)-4,7,15-trimethyl-13,16-dioxa-18-thia-2,3,5,8-tetrazatetracyclo[8.8.0.02,6.011,17]octadeca-1(10),3,5,8,11(17)-pentaene]",3.47 nM
18,"C[C@@H]1N=C(c2c(F)cccc2F)c2c(sc3c2COC[C@H](C)O3)-n2nc(C(=O)N3CC(OC(C)(C)C)C3)nc21 [Example 41, (3-tert-butoxyazetidin-1-yl)-[(7S,15S)-9-(2,6-difluorophenyl)-7,15-dimethyl-13,16-dioxa-18-thia-2,3,5,8-tetrazatetracyclo[8.8.0.02,6.011,17]octadeca-1(10),3,5,8,11(17)-pentaen-4-yl]methanone]",6.2 nM
19,"CCc1nnc2n1-c1sc3c(c1C(c1c(F)cccc1F)=N[C@H]2C)COCCO3 [Example 42, (7S)-9-(2,6-difluorophenyl)-3-ethyl-7-methyl-13,16-dioxa-18-thia-2,4,5,8-tetrazatetracyclo[8.8.0.02,6.011,17]octadeca-1(10),3,5,8,11(17)-pentaene]",2.9 nM
20,"C[C@@H]1N=C(c2c(F)cccc2F)c2c(sc3c2COCCO3)-n2c(C3CC3)nnc21 [Example 43, (7S)-3-cyclopropyl-9-(2,6-difluorophenyl)-7-methyl-13,16-dioxa-18-thia-2,4,5,8-tetrazatetracyclo[8.8.0.02,6.011,17]octadeca-1(10),3,5,8,11(17)-pentaene]",4.45 nM
21,"CC(C)c1nnc2n1-c1sc3c(c1C(c1c(F)cccc1F)=N[C@H]2C)COCCO3 [Example 44, (7S)-9-(2,6-difluorophenyl)-3-isopropyl-7-methyl-13,16-dioxa-18-thia-2,4,5,8-tetrazatetracyclo[8.8.0.02,6.011,17]octadeca-1(10),3,5,8,11(17)-pentaene]",4.87 nM
